Results on 1 molecule are retold here after publication PMC8129988 (Inorganic Chemistry Frontiers, 2021).

The subject of data set [1] is BCR-ABL-driven K-562 xenografts. Kind of data set: K-562 xenograft experiment. It is filed as in vivo, C.B.17/SCID mice. Particulars: 10 mg kg^-1 i.p., three times a week for two weeks. On the procedure:
(§1) Based on this promising in vitro data, the antitumor activity of our novel cobalt(III) complexes Co(acac)2LPon and Co(Meacac)2LPon was evaluated in xenograft mouse models. As a first in vivo experiment, BCR-ABL-driven K-562 cells were injected subcutaneously (s.c.) and treated intraperitoneally (i.p.) with the test compounds at 10 mg kg^−1 or the respective amount of solvent three times a week, for two weeks. Treatment with our novel derivatives was well tolerated and even after repeated i.p. applications no substantial body weight loss was observed (Fig. S13A ^†). […] Consequently, anticancer activity of Co(acac)2LPon was also investigated against FGFR3-driven UM-UC-14 xenografts using the identical treatment regime.
(§2) Fig. 11 In vivo anticancer activity of the investigated cobalt(III) complexes. […] Tumor sizes were evaluated by caliper measurement. […] Statistical significance was calculated by two-way ANOVA with Sidak multiple comparison test with p < 0.05(*); <0.01 (**).
(§3) Eight-to nine-week-old male C.B.17/SCID mice were bread in-house (originally Harlan) and were kept in pathogen-free conditions and controlled environment with 12 h light–dark cycle. […] Tumor growth was evaluated by daily recording of tumor size by caliper measurement. […]

Data set [2] can be described thus: cyclic voltammetry. It is filed as physicochemical. The conditions noted are these: DMF, 0.2 M [n-Bu4N][BF4], 1.5 mM complex, scan rate 100 mV s^-1. On the procedure: Since the redox potential is a crucial characteristic for the activation of cobalt(III)-based prodrugs systems, we investigated the novel complexes by cyclic voltammetry in comparison to Co(acac)2LEGFR. Measurements were performed in dimethylformamide (DMF) (+0.2 M [n-Bu4N][BF4]) at a scan speed of 100 mV s^−1. […] Even at a higher scan speed of 1000 mV s^−1, the redox processes were still completely irreversible for all complexes (Fig. S5 ^†).
The compounds were dissolved in DMF (+0.2 M [n-Bu4N][BF4]) to obtain a final concentration of 1.5 mM. Electrochemical experiments were conducted on an EG&G PARC 273A potentiostat/galvanostat with a scan rate of 100–1000 mV s^−1 at room temperature. Argon was bubbled through the solution before every measurement to remove oxygen. A three-electrode configuration cell was used with a glassy carbon electrode as working electrode, which was polished before every measurement. The reference electrode was Ag/Ag^+/ACN (10 mM AgNO3) and the auxiliary electrode was a platinum wire. The potentials were referenced to an internal standard redox couple of ferrocenium/ferrocene and calculated to the NHE (E1/2 = +0.72 V vs. NHE).[63] […] Redox potentials measured relative to the Ag/AgCl/KCl (3.5 M) reference electrode and converted to the NHE using +0.205 V. Measurements were at least repeated three times and the mean values were calculated.

Data set [3] concerns FGFR3-driven UM-UC-14 xenografts. Briefly: UM-UC-14 xenograft experiment. Type of data set: in vivo, C.B.17/SCID mice. Particulars: 10 mg kg^-1 i.p., three times a week for two weeks. On the procedure: as §1, §2, §3
Data set [4] is described as follows: serum stability in fetal calf serum (HPLC-MS). Type of data set: in vitro ADME. The conditions noted are these: 37 °C. How it is done:
Therefore, we only investigated the stability of the novel complexes in fetal calf serum (FCS). As reference again Co(acac)2LEGFR[26] was included. The complexes were dissolved in 50 mM phosphate puffer and mixed 1 : 10 with fetal calf serum (FCS; buffered with 150 mM phosphate buffer to keep a stable pH of 7.4) to a final concentration of 50 μM. The samples were incubated at 37 °C and after 0, 2, 4, 6, 24 and 26 h extracted with acetonitrile and measured by HPLC-MS. […] This indeed confirms, that by avoiding the direct attachment of the ethylenediamine moiety to an aromatic ring system, complexes with much higher stability can be generated. Since no distinct difference in stability between Co(acac)2LPon and Co(Meacac)2LPon within 26 h could be observed, measurements were repeated up to 72 h.
For serum stability measurements, 135 μL FCS, buffered with 150 mM phosphate (Na2HPO4/NaH2PO4) to maintain a pH value of 7.4, were mixed with 15 μL of a 500 μM stock solution of the respective complex in 50 mM phosphate buffer to reach a final concentration of 50 μM. The samples were incubated at 37 °C. At different time points to 20 μL serum 40 μL of ACN were added. After vigorously shaking for 2 min the suspension was centrifuged at 6000 rpm for 10 min. The supernatant was taken with a syringe and directly measured via HPLC-MS. The samples were analyzed on an Agilent 1260 Infinity system using a Waters Atlantis T3 column (150 mm × 4.6 mm) coupled to a Bruker Amazon SL ESI-IT mass spectrometer. Water and acetonitrile (both containing 0.1% formic acid) were used as eluents with a gradient of 1–99% acetonitrile within 29 min.

`CC(=O)C=C(C)[O-].CC(=O)C=C(C)[O-].Cc1ccc(C(=O)Nc2ccc(CNCCN)c(C(F)(F)F)c2)cc1C#Cc1cnc2cccnn12.O=C(O)C(F)(F)F.[Co+3]` [Co(acac)2LPon, Bis(2,4-pentanedionato)N-(4-(((2-aminoethyl)amino)methyl)-3-(trifluoromethyl)phenyl)-3-(imidazo[1,2-b]pyridazin-3-ylethynyl)-4-methylbenzamide cobalt(III) 2,2,2-trifluoroacetate]: the “tumor growth vs solvent controls” value in data set [1] is listed as “significantly reduced tumor growth”. Moreover, the “cathodic peak potential (Co(III) to Co(II), irreversible)” value in data set [2] is −315 mV vs. NHE. Moreover, in data set [3], the body weight result is recorded as “without significant impact on body weight” and the “tumor volumes vs control” value was “significant reduction of tumor volumes”. The “intact complex remaining in FCS” value in data set [4] (26 h, pH 7.4, 50 μM) is around 90%. Further, the “intact compound remaining in FCS” value in data set [4] (72 h, pH 7.4) is recorded as around 70%.
